# Results taken from patent US10815224B2, “Monocyclic heteroaryl substituted compounds” (Bristol-Myers Squibb Company, priority 2016, dated 2020).
# Target: T1, protease-activated receptor type 4 (PAR4) (Homo sapiens, UniProt Q96RI0)
# T1 sequence (Q96RI0 18-385): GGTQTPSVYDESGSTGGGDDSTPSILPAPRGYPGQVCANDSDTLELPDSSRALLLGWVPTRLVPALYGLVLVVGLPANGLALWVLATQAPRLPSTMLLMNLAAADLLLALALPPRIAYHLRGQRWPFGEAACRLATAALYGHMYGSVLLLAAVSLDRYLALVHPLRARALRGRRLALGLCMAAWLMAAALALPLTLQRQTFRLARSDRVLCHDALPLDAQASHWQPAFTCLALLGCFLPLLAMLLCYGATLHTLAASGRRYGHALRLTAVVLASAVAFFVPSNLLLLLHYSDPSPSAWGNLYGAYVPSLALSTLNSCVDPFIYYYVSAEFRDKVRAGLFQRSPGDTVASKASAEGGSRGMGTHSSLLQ
# Assay: not given
# Details: abstract of Lee et al. 2001; cited from earlier work
row,SMILES,Inhibition of PAR4-dependent platelet activation
1,"CCOC(=O)c1ccc(-c2nn(Cc3ccccc3)c3ccccc23)cc1 [YD-3, ethyl 4-(1-benzyl-1H-indazol-3-yl)benzoate]",selective and potent inhibitor

# Tested on: ACS patients
# Assay: not given
# Details: TRACER phase III trial; cited from earlier work
SMILES,Cardiovascular events,Risk of major bleeding
CCOC(=O)N[C@@H]1CC[C@@H]2[C@@H](C1)C[C@H]1C(=O)O[C@H](C)[C@H]1[C@H]2/C=C/c1ccc(-c2cccc(F)c2)cn1 [vorapaxar],did not significantly reduce cardiovascular events,significantly increased the risk of major bleeding

# Target: T2, PAR4 (Homo sapiens, UniProt Q96RI0)
# T2 construct: expressed in transfected cells; host or cells: HEK293 PAR4 Clone 1.2A (BMS Arctic ID 383940)
# T2 sequence (Q96RI0 18-385): T1 sequence (Q96RI0 18-385)
# Assay: PAR4 FLIPR assay: calcium mobilization in PAR4-expressing HEK293 cells
# Assay type: cell-based
# Details: not given
# Source text: The FLIPR assay is an exemplary in vitro assay for measuring the activity of the PAR4 antagonists of the present invention. In this assay, intracellular calcium mobilization is induced in PAR4 expressing cells by a PAR4 agonist and calcium mobilization is monitored.
# HEK293 cells stably expressing PAR4 were generated by a standard method of transfection of human PAR4 (F2R23) cDNA expression vector and selected based on PAR4 protein expression or mRNA expression. […] Therefore, the same cells were also used to determine selectivity against PAR1 and agonist activity for both receptors.
# FLIPR-based calcium mobilization assay in HEK293 cells was used to measure PAR4 antagonism, agonism, and selectivity against PAR1. […] Counter screens for agonist activity and PAR1 antagonist activity were also performed. […] Cells were plated overnight prior to the experiment in a black 384-well Purecoat Amine clear bottom plate (Becton Dickinson Biosciences, San Jose, Calif.) at 10,000 cells/well in 30 μL growth medium and incubated in a humidified chamber at 37° C. with 5% CO2 overnight. Prior to compound addition, the cell medium was replaced with 40 μL of 1× calcium and magnesium-containing Hank's Balanced Saline Solution (HBSS) (with 20 mM HEPES) and 1:1000 diluted fluorescent calcium indicator (Codex Biosolutions, Gaithersburg, Md.). After a 30 minute incubation period at 37° C., and a further 30 minute incubation and equilibration period at room temperature, 20 μL test compound (diluted in 1×HBSS buffer) was added at various concentrations at 0.17% dimethyl sulfoxide (DMSO) final concentration. Changes in fluorescence intensity were measured using a Functional Drug Screening System (FDSS, Hamamatsu, Japan) to determine agonist activities. The cells were then incubated for 30 minutes at room temperature followed by addition of 20 μL of agonist peptide for antagonist activity measurement. […] Compound potency was derived from 11-point concentration-response curves.
row,IC50,SMILES
1,14 nM,"COc1cnc2c(-c3ncc(-c4cc(O)c(F)c(F)c4)s3)cc(C)cc2n1 [Example 46, 2,3-difluoro-5-(2-(2-methoxy-7-methylquinoxalin-5-yl)thiazol-5-yl)phenol]"
2,53 nM,"COc1cnc2c(-c3nc(C(F)(F)F)c(C(=O)C4CCCCC4)s3)cc(C)cc2n1 [Example 47, Cyclohexyl(2-(2-methoxy-7-methylquinoxalin-5-yl)-4-(trifluoromethyl)thiazol-5-yl) methanone]"
3,3.1 nM,"COCc1cnc2c(-c3ncc(-c4ccn[nH]4)s3)cc(C)cc2n1 [Example 48, 2-(2-(methoxymethyl)-7-methylquinoxalin-5-yl)-5-(1H-pyrazol-5-yl)thiazole]"
4,19 nM,"COCc1cnc2c(-c3ncc(-c4cccc(O)c4)s3)cc(C)cc2n1 [Example 49, 3-(2-(2-(methoxymethyl)-7-methylquinoxalin-5-yl)thiazol-5-yl)phenol]"
5,5.7 nM,"COCc1cnc2c(-c3ncc(-c4cc(F)ccc4O)s3)cc(C)cc2n1 [Example 50, 4-fluoro-2-(2-(2-(methoxymethyl)-7-methylquinoxalin-5-yl)thiazol-5-yl)phenol]"
6,7.1 nM,"Cc1cc(-c2ncc(-c3cccc(O)c3)s2)c2ncc(OC(F)F)nc2c1 [Example 51, 3-(2-(2-(difluoromethoxy)-7-methylquinoxalin-5-yl)thiazol-5-yl)phenol]"
7,550 nM,"COc1ccc(-c2cnc(-c3cc(C)cc4nc(OC)cnc34)s2)nc1 [Example 52, 2-(2-methoxy-7-methylquinoxalin-5-yl)-5-(5-methoxypyridin-2-yl)thiazole]"
8,290 nM,"COCc1cnc2c(-c3ncc(-c4ccc(OC)cn4)s3)cc(C)cc2n1 [Example 53, 2-(2-(methoxymethyl)-7-methylquinoxalin-5-yl)-5-(5-methoxypyridin-2-yl)thiazole]"

# Continued, compound first:
row,SMILES,IC50
1,"Cc1cc(-c2ncc(-c3cccc4[nH]ccc34)s2)c2ncc(OC(F)F)nc2c1 [Example 38, 2-(2-(difluoromethoxy)-7-methylquinoxalin-5-yl)-5-(l H-indol-4-yl)thiazole]",820 nM
2,"Cc1cc(-c2ncc(CO)s2)c2ncc(OC(F)F)nc2c1 [Example 39, (2-(2-(difluoromethoxy)-7-methylquinoxalin-5-yl)thiazol-5-yl)methanol]",2000 nM
3,"Cc1cc(-c2ncc(-c3ccn[nH]3)s2)c2ncc(OC(F)F)nc2c1 [Example 40, 2-(2-(difluoromethoxy)-7-methylquinoxalin-5-yl)-5-(1H-pyrazol-5-yl)thiazole]",23 nM
4,"Cc1cc(-c2ncc(-c3ccc4cc[nH]c4c3)s2)c2ncc(OC(F)F)nc2c1 [Example 42, 2-(2-(difluoromethoxy)-7-methylquinoxalin-5-yl)-5-(1H-indol-6-yl)thiazole]",81 nM
5,"Cc1cc(-c2ncc(-c3ccncc3)s2)c2ncc(OC(F)F)nc2c1 [Example 43, 2-(2-(difluoromethoxy)-7-methylquinoxalin-5-yl)-5-(pyridin-4-yl)thiazole]",330 nM
6,"Cc1cc(-c2ncc(-c3ccccn3)s2)c2ncc(OC(F)F)nc2c1 [Example 44, 2-(2-(difluoromethoxy)-7-methylquinoxalin-5-yl)-5-(pyridin-2-yl)thiazole]",79 nM
7,"COc1cnc2c(-c3ncc(-c4ccccc4C(F)F)s3)cc(C)cc2n1 [Example 45, 5-(2-(difluoromethyl)phenyl)-2-(2-methoxy-7-methylquinoxalin-5-yl)thiazole]",25 nM

# Same assay, conditions: HEK293 cells expressing human PAR4; calcium mobilization induced by H-Ala-Phe(4-F)-Pro-Gly-Trp-Leu-Val-Lys-Asn-Gly-NH2
row,IC50,SMILES
1,450 nM,Cc1cc(-c2nc(C(C)(C)C)cs2)c2ncc(OC(F)F)nc2c1 [Example 41]
